Measured values published in PubChem BioAssay (NCI).
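How tested: cells in 96-well plates exposed to compound for 48 hours at five concentrations. TGI denotes the concentration required for complete inhibition of growth.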 Where a SMILES comes first, the peptide text is derived from it. [ ]: non-standard residue; d: D form. The star is where a group is joined. Bn2Val = CC(C)[C@@H](C(=O)*)N(Cc1ccccc1)Cc1ccccc1; NHPiperonyl = c1cc2c(cc1CN*)OCO2; NMeV = CN[C@H](C(=O)O)C(C)C; dNMeA = CN[C@H](C)C(=O)O

Tests used:
Experiment in all cases: DTP human tumour cell line panel, 48 h
[1] = tested on: LXFL 529 NSCLC
[2] = tested on: M19-MEL melanoma
[3] = tested on: KM20L2 colon
[4] = tested on: SNB-78 CNS
[5] = tested on: XF 498 CNS
[6] = tested on: DMS 273 small cell lung
[7] = tested on: DLD-1 colon
[8] = tested on: 786-0 renal
[9] = tested on: RXF-631 renal
[10] = tested on: DMS 114 small cell lung
[11] = tested on: HOP-18 NSCLC

## CC(/C=C/c1ccccc1)=N\N=C(C)\C=C\c1ccccc1
[1]
  TGI: > 100 µM
[2]
  TGI: > 100 µM
[3]
  TGI: > 100 µM
[4]
  TGI: > 100 µM
[5]
  TGI: > 100 µM
[6]
  TGI: > 100 µM
[7]
  TGI: > 100 µM
[8]
  TGI: > 100 µM

## COc1cc(/C=C2/CCCc3ccccc3C2=O)cc(OC)c1OC
[8]
  TGI: > 62 µM

## COc1c(N2CCCCC2)c2c(=O)c3ccccc3oc2c2cc(C)oc12
[8]
  TGI: > 100 µM

## C=C1CC(COc2ccc3c(C)c(Cl)c(=O)oc3c2)(c2ccccc2)OC1=O (stereo not given)
[8]
  TGI: 2.95 µM

## C/C(=N\N)C(CN1CCCCC1)C(c1ccccc1)c1c(O)c2ccccc2oc1=O (stereo not given)
[1]
  TGI: > 100 µM
[2]
  TGI: > 100 µM
[3]
  TGI: > 100 µM
[9]
  TGI: > 100 µM
[4]
  TGI: > 100 µM
[5]
  TGI: > 100 µM
[6]
  TGI: > 100 µM
[10]
  TGI: > 100 µM
[7]
  TGI: > 100 µM
[8]
  TGI: > 100 µM

## O=[N+]([O-])c1ccc(CSc2c3ccccc3nc3ccccc23)cc1
[8]
  TGI: 4.22 µM

## CCCCC1CCCCCCc2[nH]c(/C=C3\N=C(c4ccc[nH]4)C=C3OC)cc21 (stereo not given)
[8]
  TGI: 0.101 µM

## CCN1C(=O)/C(=C\c2coc3ccccc3c2=O)SC1=S
[1]
  TGI: > 100 µM
[2]
  TGI: > 100 µM
[11]
  TGI: > 100 µM
[3]
  TGI: > 100 µM
[4]
  TGI: > 100 µM
[5]
  TGI: > 100 µM
[6]
  TGI: > 100 µM
[10]
  TGI: > 100 µM
[7]
  TGI: > 100 µM
[8]
  TGI: > 100 µM

## c1ccc(C2(c3ccccc3)S/C(=C3/SC(c4ccccc4)(c4ccccc4)c4ccccc43)c3ccccc32)cc1
[8]
  TGI: > 100 µM

## CC1(C)CC(=O)c2c([nH]c(=S)c(C#N)c2-c2ccc(Br)cc2)C1
[8]
  TGI: > 100 µM

## Cc1ccc(N/C(=C(/C(Cl)=C(Cl)Cl)[N+](=O)[O-])n2nnc3ccccc32)cc1
[8]
  TGI: 38.4 µM

## O=S(Nc1ccccc1)c1ccccc1Oc1ccccc1 (stereo not given)
[8]
  TGI: > 100 µM

## Cc1cc2nn(C3CCCCO3)nc2cc1C (stereo not given)
[8]
  TGI: > 100 µM

## CCCCCCCCCCCCCCC(C(=O)[O-])[n+]1ccccc1 (stereo not given)
[8]
  TGI: > 100 µM

## CCC(C#N)NCc1ccc(CNC(C#N)CC)cc1 (stereo not given)
[8]
  TGI: > 100 µM

## Cn1cc(S(=O)(=O)NC(=O)Nc2ccc(Cl)cc2)c(=O)c2ccc(Cl)cc21
[8]
  TGI: > 100 µM

## COc1cc(C(=O)O)cc2c1[nH]c1ccccc12
[1]
  TGI: > 25 µM
[2]
  TGI: > 25 µM
[3]
  TGI: > 25 µM
[4]
  TGI: > 25 µM
[6]
  TGI: > 25 µM
[10]
  TGI: > 25 µM
[7]
  TGI: > 25 µM
[8]
  TGI: > 25 µM

## Clc1ccc(/C=c2\nc(-c3ccccc3)n3c2nc2ccccc23)cc1
[8]
  TGI: > 100 µM

## Nc1nc(N)c2c(CCc3ccc(C(=O)N[C@@H](CCC(=O)O)C(=O)O)cc3)ccnc2n1
[8]
  TGI: > 100 µM

## Cc1cccc(-c2cccc(COCc3cccc(-c4cccc(CO)n4)n3)n2)n1
[8]
  TGI: > 50 µM

## Cc1cccc(C)c1NC(=O)C(=O)C(c1ccccc1Cl)S(=O)(=O)Cc1ccccc1Cl (stereo not given)
[8]
  TGI: > 71.7 µM

## O=C(O)COc1cc(-c2ccccc2F)nc2cc3c(cc12)OCO3
[8]
  TGI: > 100 µM

## CC(C)[C@H](NC(=O)[C@H](C(C)C)N(Cc1ccccc1)Cc1ccccc1)C(=O)N(C)[C@H](C(=O)N1CCC[C@H]1C(=O)N(C)[C@H](C)C(=O)NCc1ccc2c(c1)OCO2)C(C)C (Bn2Val-V[NMeV]P[dNMeA]-NHPiperonyl)
[8]
  TGI: > 83.2 µM

## CCCCCCCCCCCCCCCCOP(=O)(O)OP(=O)(O)OCC1OC(n2cnc3c(N)ncnc32)C(O)C1O (stereo not given)
[8]
  TGI: > 100 µM

## c1cc2c(cc1NC1=NCCO1)CCCC2
[8]
  TGI: 16.7 µM

## S=C(Nc1ccc(Cl)cc1)c1ccc(CN2CCCCC2)s1
[8]
  TGI: > 100 µM

## C=CC(C)CCC(C/C=C(\C)CCCC(C)C)C(=C)CCCC(C)C (stereo not given)
[8]
  TGI: > 100 µM

## SCc1ccc(-c2ccc(CS)cc2)cc1
[1]
  TGI: 28.7 µM
[2]
  TGI: 35.7 µM
[11]
  TGI: 30.9 µM
[3]
  TGI: 53 µM
[4]
  TGI: 51 µM
[5]
  TGI: 36.6 µM
[6]
  TGI: 58.4 µM
[10]
  TGI: 25.6 µM
[7]
  TGI: 34.1 µM
[8]
  TGI: 59.5 µM

## CSc1ccc(/C=C/C(=O)c2nc3ccccc3[nH]2)cc1
[8]
  TGI: 43.6 µM

## Nc1nc(Cl)cc(NCC2(CO)CC(CCCc3ccccc3)C2)n1 (stereo not given)
[8]
  TGI: > 100 µM

## COc1ccc2c(c1)CC[C@@H]1C2CC[C@]2(C)C(=N\O)/C(=N/O)CC12 (stereo not given in full)
[1]
  TGI: 26.8 µM
[2]
  TGI: 37 µM
[11]
  TGI: 30.4 µM
[3]
  TGI: 18.5 µM
[4]
  TGI: 47.5 µM
[5]
  TGI: 29.6 µM
[6]
  TGI: 26.7 µM
[7]
  TGI: 36.6 µM
[8]
  TGI: 31.8 µM

## CC1(C)[C@H]2CC[C@](C)(C2)[C@]1(S)Cc1ccccn1
[8]
  TGI: > 100 µM

## CC(/C=C/C=C\C=C\C=C(/C)C(=O)NC(C)CO)=C\C(C)C(O)/C(C)=C/C(C)CCc1ccccc1 (stereo not given)
[1]
  TGI: 18.7 µM
[2]
  TGI: 19.4 µM
[11]
  TGI: 24.2 µM
[3]
  TGI: 25.1 µM
[4]
  TGI: 25.2 µM
[5]
  TGI: 22 µM
[6]
  TGI: 17.1 µM
[10]
  TGI: 2.47 µM
[7]
  TGI: 31.6 µM
[8]
  TGI: 26.4 µM

## CN(C)CCn1c2c(c3ccccc31)CCc1ccccc1-2
[8]
  TGI: 28.4 µM

## O=c1[nH]c(=S)n(-c2cccc3ccccc23)c(O)c1/C=C1\C=Nc2ccccc21
[8]
  TGI: 3.55 µM

## CCOc1cc(/C=N\O)cc(/C=N/O)c1O
[8]
  TGI: > 100 µM

## CCCCCCCCCCCCCCCCC(=O)NCC(=O)NCC(=O)NC(Cc1ccccc1)C(=O)Oc1ccc([N+](=O)[O-])cc1 (stereo not given)
[8]
  TGI: 72.9 µM
